What follows are molecules tested against T1, KRAS (G12D) (Homo sapiens, UniProt P01116, G12D) (assay: KRAS (G12D) cellular degradation assay in AsPC-1 cells). Conditions: 24 hours, antibody fluorescence (Odyssey CLX), DC50 half-maximal degradation concentration.
T1 construct: in-cell western with KRAS G12D antibody after 24 h
Type: cell-based
Procedure, shortened: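 Degradation: 22,000 cells/well grown to ~90% confluency, 24 h compound, fixed/permeabilised, anti-KRAS G12D + β-actin antibodies, near-IR fluorescence, DC50. Proliferation: 3,500 cells/well overnight, 6 d compound, CellTiter Glo luminescence, IC50. Dosing […]–1.5 nM final, 1:3 steps.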

T1 sequence (P01116 1-188 isoform P01116-2 G12D): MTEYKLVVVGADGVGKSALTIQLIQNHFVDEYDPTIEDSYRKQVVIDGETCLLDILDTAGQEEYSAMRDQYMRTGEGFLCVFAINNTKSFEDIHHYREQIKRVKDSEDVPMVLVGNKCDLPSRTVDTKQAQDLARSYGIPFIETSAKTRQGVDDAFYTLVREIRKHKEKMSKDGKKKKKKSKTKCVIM

| DC50 [nM] | Structure (SMILES) |
| --- | --- |
| 10 to 100 | CO[C@@H](C)COc1nc(N2C[C@@H]3C[C@H]2CN3)c2cc(C3CC3)c(-c3c(C)c(F)cc4[nH]ncc34)c(OCc3ccc(-c4cn([C@H](C(=O)N5C[C@H](O)C[C@H]5C(=O)N[C@H](C#Cc5cnccc5Cl)CO)C(C)C)nn4)cc3)c2n1 [Example 108, (2S,4R)-1-((2S)-2-(4-(4-(((4-((1S,4S)-2,5-diazabicyclo[2.2.1]heptan-2-yl)-6-cyclopropyl-7-(6-fluoro-5-methyl-1H-indazol-4-yl)-2-((S)-2-methoxypropoxy)quinazolin-8-yl)oxy)methyl)phenyl)-1H-1,2,3-triazol-1-yl)-3-methylbutanoyl)-N—((R)-4-(4-chloropyridin-3-yl)-1-hydroxybut-3-yn-2-yl)-4-hydroxypyrrolidine-2-carboxamide] |
| > 1000 | CCn1nccc1-c1ccc(CNC(=O)[C@@H]2C[C@@H](O)CN2C(=O)[C@H](C(C)C)n2cc(-c3ccc(COc4c(-c5c(C)c(F)cc6[nH]ncc56)c(C5CC5)cc5c(N6C[C@H]7C[C@@H]6CN7)nc(OC[C@H](C)OC)nc45)cc3)nn2)cc1 (single isomer, unassigned) [Example 7B] |
| > 1000 | CO[C@@H](C)COc1nc(N2C[C@H]3C[C@@H]2CN3)c2cc(C3CC3)c(-c3c(C)c(F)cc4n[nH]cc34)c(OCc3ccc(-c4cn([C@H](C(=O)N5C[C@H](O)C[C@H]5C(=O)N[C@@H](CO)c5ccc(-c6c(C)noc6C)cc5)C(C)C)nn4)cc3)c2n1 (single isomer, unassigned) [Example 6B] |
| 10 to 100 | CO[C@@H](C)COc1nc(N2C[C@@H]3C[C@H]2CN3)c2cc(C3CC3)c(-c3c(C)c(F)cc4[nH]ncc34)c(OCc3ccc(-c4cn([C@H](C(=O)N5C[C@H](O)C[C@H]5C(=O)N[C@H](C#Cc5ccccc5)CO)C(C)C)nn4)cc3)c2n1 [Example 123, (2S,4R)-1-((2S)-2-(4-(4-(((4-((1S,4S)-2,5-diazabicyclo[2.2.1]heptan-2-yl)-6-cyclopropyl-7-(6-fluoro-5-methyl-1H-indazol-4-yl)-2-((S)-2-methoxypropoxy)quinazolin-8-yl)oxy)methyl)phenyl)-1H-1,2,3-triazol-1-yl)-3-methylbutanoyl)-4-hydroxy-N—((R)-1-hydroxy-4-phenylbut-3-yn-2-yl)pyrrolidine-2-carboxamide] |
| < 10 | CO[C@H]1CC[C@H](Oc2nc(N3C[C@@H]4C[C@H]3CN4)c3cc(C4CC4)c(-c4c(C)c(F)cc5[nH]ncc45)c(OCc4ccc(-c5cn([C@H](C(=O)N6C[C@H](O)C[C@H]6C(=O)N[C@H](c6ccc(-c7scnc7C)cc6)[C@H](C)O)C(C)C)nn5)cc4)c3n2)C1 [Example 215, (2S,4R)-1-((2S)-2-(4-(4-(((4-((1S,4S)-2,5-diazabicyclo[2.2.1]heptan-2-yl)-6-cyclopropyl-7-(6-fluoro-5-methyl-1H-indazol-4-yl)-2-(((1S,3S)-3-methoxycyclopentyl)oxy)quinazolin-8-yl)oxy)methyl)phenyl)-1H-1,2,3-triazol-1-yl)-3-methylbutanoyl)-4-hydroxy-N-((1R,2S)-2-hydroxy-1-(4-(4-methylthiazol-5-yl)phenyl)propyl)pyrrolidine-2-carboxamide] |
| 10 to 100 | CCn1nccc1-c1ccc([C@H](CO)NC(=O)[C@@H]2C[C@@H](O)CN2C(=O)[C@H](C(C)C)n2cc(-c3ccc(COc4c(-c5c(C)c(F)cc6[nH]ncc56)c(C5CC5)cc5c(N6C[C@@H]7CN[C@@H](C7)C6)nc(OC[C@H](C)OC)nc45)cc3)nn2)cc1 [Example 229, (2S,4R)-1-((2S)-2-(4-(4-(((4-((1S,5S)-3,6-diazabicyclo[3.2.1]octan-3-yl)-6-cyclopropyl-7-(6-fluoro-5-methyl-1H-indazol-4-yl)-2-((S)-2-methoxypropoxy)quinazolin-8-yl)oxy)methyl)phenyl)-1H-1,2,3-triazol-1-yl)-3-methylbutanoyl)-N—((R)-1-(4-(1-ethyl-1H-pyrazol-5-yl)phenyl)-2-hydroxyethyl)-4-hydroxypyrrolidine-2-carboxamide] |

More lines, now with the values behind:

| Structure (SMILES) | DC50 [nM] |
| --- | --- |
| CCn1nccc1-c1ccc([C@@H](NC(=O)[C@@H]2C[C@@H](O)CN2C(=O)[C@H](C(C)C)n2cc(-c3ccc(COc4c(-c5c(C)c(F)c(F)c6[nH]ncc56)c(C5CC5)cc5c(N(C)[C@H]6CCNC6)nc(OC[C@H](C)OC)nc45)cc3)nn2)[C@H](C)O)cc1 [Example 146, (2S,4R)-1-((2S)-2-(4-(4-(((6-cyclopropyl-7-(6,7-difluoro-5-methyl-1H-indazol-4-yl)-2-((S)-2-methoxypropoxy)-4-(methyl((S)-pyrrolidin-3-yl)amino)quinazolin-8-yl)oxy)methyl)phenyl)-1H-1,2,3-triazol-1-yl)-3-methylbutanoyl)-N-((1R,2S)-1-(4-(1-ethyl-1H-pyrazol-5-yl)phenyl)-2-hydroxypropyl)-4-hydroxypyrrolidine-2-carboxamide] | 10 to 100 |
| CCn1nccc1-c1ccc([C@H](CO)NC(=O)[C@@H]2C[C@@H](O)CN2C(=O)[C@H](C(C)C)n2cc(-c3ccc(COc4c(-c5c(C)c(F)cc6[nH]ncc56)c(C5CC5)cc5c(N6C[C@@H]7C[C@H]6CN7)nc(N6CCC(COC)C6)nc45)cc3)nn2)cc1 (stereo partly drawn) [Example 125, (2S,4R)-1-((2S)-2-(4-(4-(((4-((1S,4S)-2,5-diazabicyclo[2.2.1]heptan-2-yl)-6-cyclopropyl-7-(6-fluoro-5-methyl-1H-indazol-4-yl)-2-(3-(methoxymethyl)pyrrolidin-1-yl)quinazolin-8-yl)oxy)methyl)phenyl)-1H-1,2,3-triazol-1-yl)-3-methylbutanoyl)-N—((R)-1-(4-(1-ethyl-1H-pyrazol-5-yl)phenyl)-2-hydroxyethyl)-4-hydroxypyrrolidine-2-carboxamide] | 10 to 100 |
| CCn1cc2cccc(C#C[C@H](CO)NC(=O)[C@@H]3C[C@@H](O)CN3C(=O)[C@H](C(C)C)n3cc(-c4ccc(COc5c(-c6c(C)c(F)cc7[nH]ncc67)c(C6CC6)cc6c(N7C[C@@H]8C[C@H]7CN8)nc(O[C@H]7C[C@H](OC)C7)nc56)cc4)nn3)c2n1 [Example 168, (2S,4R)-1-((2S)-2-(4-(4-(((4-((1S,4S)-2,5-diazabicyclo[2.2.1]heptan-2-yl)-6-cyclopropyl-7-(6-fluoro-5-methyl-1H-indazol-4-yl)-2-((1r,3S)-3-methoxycyclobutoxy)quinazolin-8-yl)oxy)methyl)phenyl)-1H-1,2,3-triazol-1-yl)-3-methylbutanoyl)-N—((R)-4-(2-ethyl-2H-indazol-7-yl)-1-hydroxybut-3-yn-2-yl)-4-hydroxypyrrolidine-2-carboxamide] | 10 to 100 |
| CCn1nccc1-c1ccc([C@H](CO)NC(=O)[C@@H]2C[C@@H](O)CN2C(=O)[C@H](C(C)C)n2cc(-c3ccc(COc4c(-c5c(C)c(F)cc6[nH]ncc56)c(C5CC5)cc5c(N(C)C[C@@H]6CCNC6)nc(OC[C@H](C)OC)nc45)cc3)nn2)cc1 [Example 216, (2S,4R)-1-((2S)-2-(4-(4-(((6-cyclopropyl-7-(6-fluoro-5-methyl-1H-indazol-4-yl)-2-((S)-2-methoxypropoxy)-4-(methyl(((R)-pyrrolidin-3-yl)methyl)amino)quinazolin-8-yl)oxy)methyl)phenyl)-1H-1,2,3-triazol-1-yl)-3-methylbutanoyl)-N—((R)-1-(4-(1-ethyl-1H-pyrazol-5-yl)phenyl)-2-hydroxyethyl)-4-hydroxypyrrolidine-2-carboxamide] | < 10 |
